Laboratory results published in US20110236312A1, “NUCLEOSIDE ANALOGUES USEFUL AS POSITRON EMISSION TOMOGRAPHY (PET) IMAGING AGENTS” (IMPERIAL INNOVATIONS LIMITED, priority 2008, published 2011).

Legend:
[1] = Radio-HPLC metabolite analysis; format: in vivo; conditions: HCT116 tumour bearing mice, i.v., 30 min post injection, plasma, liver, kidney, urine, FIG. 5
Protocol: [^18F]FTT was produced using the method described above. HCT116 tumour bearing mice were injected intravenously via the lateral tail vein with [^18F]FTT (3.7 MBq) and after 30 min post injection were sacrificed by exsanguination via cardiac puncture under isofluorane anesthesia and then tissue removed. Samples were then snap frozen using dry ice and stored until use. To plasma (0.2 ml) was added ice-cold acetonitrile (1.5 ml) and the sample centrifuged (3 min, 4° C., 15493×g). The supernatant was then decanted and evaporated to dryness using a rotary evaporator (bath temperature 40° C.). The sample was then redissolved in 10% ethanol in PBS (1.1 ml) and filtered through a 0.22 μm filter and then injected. Tumour, liver and kidney samples were homogenised in ice-cold acetonitile (1.5 ml) using an IKA Turrax homogeniser and then processed as for plasma samples. Urine samples were diluted with 10% ethanol in PBS (1.1 ml) and filtered through a 0.22 μm filter and then injected.
HPLC conditions: Agilent 1100 series HPLC system (Agilent Technologies, Stockport, UK) equipped with a γ-RAM Model 3 gamma-detector (IN/US Systems Inc., Florida, USA) and the Laura 3 software (LabLogic, Sheffield, UK). […]

HCT116 tumour = test: Dynamic PET imaging of tumour bearing mice; format: in vivo
Protocol: All animal experiments were done by licensed investigators in accordance with the United Kingdom Home Office Guidance on the Operation of the Animal (Scientific Procedures) Act 1986 and within guidelines set out by the United Kingdom Coordinating Committee for Cancer Research's Ad hoc Committee on Welfare of Animals in Experimental Neoplasia. Both tumour-bearing (Balb/c nude mice) and non-tumour bearing (Balb/c mice) animals were used. Human colon, HCT116, tumours were grown in Balb/c nu/nu mice (Harlan) as previously reported. Tumour dimensions were measured continuously using a caliper and tumour volumes were calculated by the equation: volume=(π/6)×a×b×c, where a, b, and c represent three orthogonal axes of the tumour. Mice were used when their tumours reached approximately 100 mm^3
Dynamic [^18F]FTT imaging scans were carried out on a dedicated small animal PET scanner, Siemens Inveon PET module, Siemens Molecular Imaging Inc., Knoxville, USA). The features of this instrument have been described previously. For scanning the tail veins of vehicle- or drug-treated mice were cannulated after induction of anaesthesia (isofluorane/O2/N2O). […] The count densities were averaged for all ROIs at each of the 19 time points to obtain a time versus radioactivity curve (TAC). […]

HCT116 cells = test: Acid insoluble fraction measurements (radiotracer incorporation into DNA); format: cell-based; conditions: HCT116 human colon cancer cells in culture
Protocol: Acid extraction was performed to separate radioactivity associated with small molecules, RNA, and proteins from that of DNA. HCT116 cells were cultured in triplicate in 100 mm dishes and the cells were used for DNA extraction at 24 hr. Briefly 5 ml of the assay medium containing 50 μCi of tracer was added to each dish and the dishes incubated at 37° C. for 60 min. After incubation, the medium was removed, and cells were washed twice with ice-cold phosphate-buffered saline (PBS) and 100 μl aliquots of the washings were placed in counting tubes for counting. After washing, the cells were harvested by scraping, collected into counting tubes and then centrifuged at 1200 g at 4° C. for 10 minutes. The cells were homogenized in 1 mL of ice-cold 10% perchloric acid ([…] and centrifuged. The acid-soluble fraction (supernatant) was removed and 100 μl aliquots were counted in a gamma counter. The radioactivity in the acid-insoluble precipitate (largely DNA) was counted separately.

Cc1cn([C@H]2C[C@H](O)[C@@H](CO)S2)c(=O)n(Cc2cn(CC[18F])nn2)c1=O [[^18F]FTT, [^18F]N^3-((1-(2-Fluoroethyl)-1H-[1,2,3]-triazol-4-yl)methyl)-4′-thio-β-thymidine]
metabolic stability [1]: metabolically stable in mice
tissue pharmacokinetics (time versus radioactivity curves) (HCT116 tumour; 60 min dynamic scan, FIG. 4): simple tissue pharmacokinetics
localisation on PET images (HCT116 tumour; i.v. via tail vein, FIG. 3): localisation in tumour, kidney, liver and the early part of the small intestines
incorporation into tumour cells in culture (HCT116 cells): readily incorporated
